Data on one molecule can be found in publication PMC8447253 (2021).

Experiment in all cases: emission titration (737 nm), Bard equation
Conditions in all cases: K+ (50 mM potassium phosphate), pH 7, enantiomer by table order, per base

Assay [1] has as its system d(GCGCGCGCGC)2; (GC)5 (DNA, duplex) GCGCGCGCGC
Assay [2] has as its system d(CGCGAATTCGCG)2 (DNA, duplex) CGCGAATTCGCG
Assay [3] relates to d(CGCAAATTTGCG)2 (DNA, duplex) CGCAAATTTGCG
In assay [4] the test system is d(ATTATTATTATATTA)/d(TAATATAATAATAAT) (AT DNA) (DNA, duplex) ATTATTATTATATTA/TAATATAATAATAAT

Take `Cc1cnc2c(ccc3c(C)c(C)cnc32)c1C.Cc1cnc2c(ccc3c(C)c(C)cnc32)c1C.[Cr+3].c1ccc2nc3c4cccnc4c4ncccc4c3nc2c1`: the KDNA was found to be 770000 M⁻¹ in assay [1] (site size n 3.1 ± 0.1 base pairs); 610000 M⁻¹ in assay [1] (site size n 4.8 ± 0.2 base pairs); 1.4e+06 M⁻¹ in assay [2] (site size n 1.6 ± 0.1 base pairs); 510000 M⁻¹ in assay [2] (site size n 1.7 ± 0.1 base pairs); 1.7e+06 M⁻¹ in assay [3] (site size n 1.92 ± 0.04 base pairs); 480000 M⁻¹ in assay [3] (site size n 2.10 ± 0.09 base pairs). Moreover, the KDNA is 4e+06 M⁻¹ in assay [4] (site size n 2.25 ± 0.05 base pairs) and 3e+06 M⁻¹ in assay [4] (site size n 2.28 ± 0.05 base pairs).
